{
  "source": "ChEMBL document CHEMBL2163202",
  "about": "“Enhanced Ca2+ entry, ceramide formation, and apoptotic death of erythrocytes triggered by plumbagin” (J Nat Prod, 2012)",
  "key": {"Erythrocyte [1]": {"tested_on": "Erythrocyte", "assay": "Stimulation of ceramide formation in human erythrocytes at 2 uM after 48 hrs by FITC-labeled anticeramide antibody method", "type": "functional, cell-based"}, "Erythrocyte [2]": {"tested_on": "Erythrocyte", "assay": "Induction of eryptosis in human erythrocytes assessed as cell membrane scrambling at 1 uM after 48 hrs by annexin V staining-based FACS analysis in nominal absence of extracellular Ca2+", "type": "functional"}, "Erythrocyte [3]": {"tested_on": "Erythrocyte", "assay": "Induction of eryptosis in human erythrocytes assessed as cell membrane scrambling at 1 uM after 48 hrs by annexin V staining-based FACS analysis in presence of extracellular Ca2+", "type": "functional"}, "Erythrocyte [4]": {"tested_on": "Erythrocyte", "assay": "Hemolysis in human erythrocytes assessed as release of hemoglobin at 1 uM after 48 hrs by spectrophotometry", "type": "functional, cell-based"}, "Erythrocyte [5]": {"tested_on": "Erythrocyte", "assay": "Induction of eryptosis in human erythrocytes assessed as phosphatidylserine exposure up to 2 uM after 48 hrs by annexin V staining-based FACS analysis", "type": "functional, cell-based"}, "Erythrocyte [6]": {"tested_on": "Erythrocyte", "assay": "Induction of eryptosis in human erythrocytes assessed as phosphatidylserine exposure at 1 uM after 48 hrs by annexin V staining-based FACS analysis", "type": "functional, cell-based"}, "Erythrocyte [7]": {"tested_on": "Erythrocyte", "assay": "Induction of eryptosis in human erythrocytes assessed as reduction in cell volume measuring forward scatter up to 2 uM after 48 hrs by FACS analysis", "type": "functional, cell-based"}, "Erythrocyte [8]": {"tested_on": "Erythrocyte", "assay": "Hemolysis in human erythrocytes assessed as release of hemoglobin up to 2 uM after 48 hrs by spectrophotometry", "type": "functional, cell-based"}, "Erythrocyte [9]": {"tested_on": "Erythrocyte", "assay": "Induction of eryptosis in human erythrocytes assessed as increase in cytosolic Ca2+ at 0.5 uM after 48 hrs by Fluo-3/AM-based FACS analysis", "type": "functional, cell-based"}, "Erythrocyte [10]": {"tested_on": "Erythrocyte", "assay": "Induction of eryptosis in human erythrocytes assessed as increase in cytosolic Ca2+ up to 2 uM after 48 hrs by Fluo-3/AM-based FACS analysis", "type": "functional, cell-based"}, "Erythrocyte [11]": {"tested_on": "Erythrocyte", "assay": "Induction of eryptosis in human erythrocytes assessed as reduction in cell volume measuring forward scatter at 1.5 uM after 48 hrs by FACS analysis", "type": "functional, cell-based"}},
  "note": "Calls of active or inactive are those of the source. The calls are words filed in the database; no cut-off is given here.",
  "data": [
    {"smiles": "CC1=CC(=O)c2c(O)cccc2C1=O", "values": [
      {"measurement": "Activity", "setting": "Erythrocyte [1]", "result": "Active"},
      {"measurement": "Activity", "setting": "Erythrocyte [2]", "result": "inactive"},
      {"measurement": "Activity", "setting": "Erythrocyte [3]", "result": "Active"},
      {"measurement": "Activity", "setting": "Erythrocyte [4]", "result": "Active"},
      {"measurement": "Activity", "setting": "Erythrocyte [5]", "result": "Active"},
      {"measurement": "Activity", "setting": "Erythrocyte [6]", "result": "Active"},
      {"measurement": "Activity", "setting": "Erythrocyte [7]", "result": "Active"},
      {"measurement": "Activity", "setting": "Erythrocyte [8]", "result": "Active"},
      {"measurement": "Activity", "setting": "Erythrocyte [9]", "result": "Active"},
      {"measurement": "Activity", "setting": "Erythrocyte [10]", "result": "Active"},
      {"measurement": "Activity", "setting": "Erythrocyte [11]", "result": "Active"}
    ]}
  ]
}
